One assay deals with T1, human CCR5 (Homo sapiens, UniProt P51681).
T1 construct: expressed in transfected cells
T1 sequence (P51681 whole entry): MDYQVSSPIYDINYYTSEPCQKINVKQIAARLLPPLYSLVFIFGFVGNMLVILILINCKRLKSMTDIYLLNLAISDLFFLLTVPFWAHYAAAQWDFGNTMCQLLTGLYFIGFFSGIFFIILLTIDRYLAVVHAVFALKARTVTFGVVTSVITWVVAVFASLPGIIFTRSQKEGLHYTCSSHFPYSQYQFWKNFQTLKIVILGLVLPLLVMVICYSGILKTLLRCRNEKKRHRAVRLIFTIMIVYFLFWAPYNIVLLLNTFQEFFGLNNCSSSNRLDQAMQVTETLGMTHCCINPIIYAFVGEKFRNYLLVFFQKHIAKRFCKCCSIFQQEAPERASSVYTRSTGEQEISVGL
As to the kind of experiment: Inhibition of [125I]-RANTES binding to CCR5/CHO cells (CCR5 antagonist activity). As to conditions: 40 min, test compound 1 μM, [125I]-RANTES 100 pM, CCR5/CHO strains, room temperature, read-out: Binding Inhibitory Ratio (%). The procedure: Cloning of a CCR5 gene was conducted from human spleen cDNA by a PCR method. Using 0.5 ng of spleen cDNA (Toyobo Co., Ltd., QUICK-Clone cDNA) as a template, the PCR reaction was carried out in a DNA Thermal Cycler 480 (Perkin Elmer) using a TaKaRa EX Taq (Takara Shuzo Co., Ltd.) (reaction conditions: 30 cycles of treatments at 95° C. for 1 minute, at 60° C. for 1 minute, and at 75° C. for 5 minutes) by adding 25 pmol of primers, SEQ ID NO. 1 (sequence length: 34; sequence type: nucleic acid; number of chains: a single chain; topology: linear; sequence kind: other nucleic acid, synthetic DNA) described in Experimental Example (1) of WO 99/32100, and SEQ ID NO. 2 (sequence length: 34; sequence type: nucleic acid; number of chains: a single chain; topology: linear; sequence kind: other nucleic acid, synthetic DNA) described in Experimental Example (1) of WO 99/32100, respectively, which were prepared by referring to the base sequence of the CCR5 gene described by Samson et al. (Biochemistry 35 (11), 3362-3367 (1996)). The PCR products were subjected to agarose gel electrophoresis to collect DNA fragments of about 1.0 kb. Then, the CCR5 gene was cloned using an Original TA Cloning Kit (Funakoshi Co., Ltd.).
The plasmids obtained above were digested with restriction enzymes XbaI (Takara Shuzo Co., Ltd.) and BamHI (Takara Shuzo Co., Ltd.), and subjected to agarose gel electrophoresis to collect DNA fragments of about 1.0 kb. The DNA fragments and a plasmid pcDNA3.1 (Funakoshi Co., Ltd.) for expression in animal cells, which was previously digested with XbaI and BamHI, were mixed and ligated by DNA Ligation Kit Ver.2 (Takara Shuzo Co., Ltd.). Transformation of E. coli JM109 competent cells (Takara Shuzo Co., Ltd.) gave plasmid pCKR5.
CHO-K1 cells grown in a 750 ml tissue culture flask (Becton Dickinson) using Ham's F12 medium (Nihon Pharmaceutical Co., Ltd.) containing 10% fetal bovine serum (Lifetech Oriental) were collected from the flask by using 0.5 g/L trypsin-0.2 g/L EDTA (Lifetech Oriental). The cells were then washed with PBS (Lifetech Oriental), centrifuged (1000 rpm, 5 minutes), and suspended in PBS. Next, DNA was introduced into the cells using Gene Pulser (Bio-Rad Laboratories Inc.) under the following conditions. Namely, 8×10^6 cells and 10 μg of plasmid pCKR5 for expression of human CCR5 were added into a cuvette of a 0.4 cm-gap, and electroporation was carried out at an electric voltage of 0.25 kV and a capacitance of 960 μF. Subsequently, the cells were transferred into Ham's F12 medium containing 10% fetal bovine serum, and incubated for 24 hours. The cells were again collected, centrifuged, and then suspended in Ham's F12 medium containing 10% fetal bovine serum and Geneticin (Lifetech Oriental) at a concentration of 500 μg/ml. The suspension of cells was diluted to a concentration of 10^4 cells/ml, and inoculated on a 96-well plate (Becton Dickinson) to give Geneticin-resistant strains.
Subsequently, the Geneticin-resistant strains were cultured in the 96-well plate (Becton Dickinson), and then CCR5-expressing cells were selected from the resistant strains. Namely, an assay buffer (Ham's F12 medium containing 0.5% BSA, and 20 mM HEPES (Wako Pure Chemical Industries, Ltd., pH 7.2)) containing 200 pM [^125I]-RANTES (Amersham) as a ligand was added to each well and the binding reaction was carried out at room temperature for 40 minutes. Each well plate containing the cells was washed with ice-cooled PBS, and then to each well was added 1 M NaOH in an amount of 50 μl/well, which was stirred. The cells to which the ligand bound specifically, i.e., CCR5/CHO strains, were selected by measurement of radioactivity by γ-counter.
The CCR5/CHO strains were inoculated on a 96-well microplate at a concentration of 5×10^4 cells/well, respectively and were cultured for 24 hours. […]
Regarding `CCCCOCCOc1ccc(-c2ccc(N3CCC(C(=O)OC)C3)c(/C=C(\C)C(=O)Nc3ccc([S@@+]([O-])Cc4cncn4CCC)cc3)c2)cc1` (single isomer, unassigned) [Compound 57, (Ss)-(2E)-3-[4′-(2-butoxyethoxy)-4-[3-(methoxycarbonyl)pyrrolidin-1-yl]-1,1′-biphenyl-3-yl]-2-methyl-N-[4-[[(1-propyl-1H-imidazol-5-yl)methyl]sulfinyl]phenyl]acrylamide], the inhibition at 1 µM amounted to 100%. Regarding `CCCCOCCOc1ccc(-c2ccc(N3CCC(C(=O)O)C3)c(/C=C(\C)C(=O)Nc3ccc([S@@+]([O-])Cc4cncn4CCC)cc3)c2)cc1` (single isomer, unassigned) [Compound 59, (Ss)-(2E)-3-[4′-(2-butoxyethoxy)-4-(3-carboxypyrrolidin-1-yl)-1,1′-biphenyl-3-yl]-2-methyl-N-[4-[[(1-propyl-1H-imidazol-5-yl)methyl]sulfinyl]phenyl]acrylamide], the inhibition at 1 µM came out at 89%. Turning to `CCCCOCCOc1ccc(-c2ccc(N3CCCC3C)c(/C=C(\C)C(=O)Nc3ccc([S@@+]([O-])Cc4cncn4CCC)cc3)c2)cc1` (stereo partly shown) [Compound 17, (Ss)-(2E)-3-[4′-(2-butoxyethoxy)-4-(2-methylpyrrolidin-1-yl)-1,1′-biphenyl-3-yl]-2-methyl-N-[4-[[(1-propyl-1H-imidazol-5-yl)methyl]sulfinyl]phenyl]acrylamide], the inhibition at 1 µM was 100%. With `CCCCOCCOc1ccc(-c2ccc(N3CCC(C)C3)c(/C=C(\C)C(=O)Nc3ccc([S@@+]([O-])Cc4cncn4CCC)cc3)c2)cc1` (stereo partly shown) [Compound 23, (Ss)-(2E)-3-[4′-(2-butoxyethoxy)-4-(3-methylpyrrolidin-1-yl)-1,1′-biphenyl-3-yl]-2-methyl-N-[4-[[(1-propyl-1H-imidazol-5-yl)methyl]sulfinyl]phenyl]acrylamide], the inhibition at 1 µM was determined as 100%. Still for that read-out and setting: next, `CCCCOCCOc1ccc(-c2ccc(N3CCCC3)c(/C(C)=C/C(=O)Nc3ccc([S@@+]([O-])Cc4cncn4CCC)cc3)c2)cc1` [Compound 35, (S)-(2E)-3-[4′-(2-butoxyethoxy)-4-pyrrolidin-1-yl-1,1′-biphenyl-3-yl]-N-[4-[[(1-propyl-1H-imidazol-5-yl)methyl]sulfinyl]phenyl]but-2-enoic amide]: 100%; `CCCCOCCOc1ccc(-c2ccc(N3CCC(COC(C)=O)C3)c(/C=C(\C)C(=O)Nc3ccc([S@@+]([O-])Cc4cncn4CCC)cc3)c2)cc1` (stereo partly shown) [Compound 38, (Ss)-(2E)-3-[4-[3-(acetoxymethyl)pyrrolidin-1-yl]-4′-(2-butoxyethoxy)-1,1′-biphenyl-3-yl]-2-methyl-N-[4-[[(1-propyl-1H-imidazol-5-yl)methyl]sulfinyl]phenyl]acrylamide]: 93%. On the same count and under the same terms, next, `CCCCOCCOc1ccc(-c2ccc(N3CCC(CO)C3)c(/C=C(\C)C(=O)Nc3ccc([S@@+]([O-])Cc4cncn4CCC)cc3)c2)cc1` (stereo partly shown) [Compound 39, (Ss)-(2E)-3-[4′-(2-butoxyethoxy)-4-[3-(hydroxymethyl)pyrrolidin-1-yl]-1,1′-biphenyl-3-yl]-2-methyl-N-[4-[[(1-propyl-1H-imidazol-5-yl)methyl]sulfinyl]phenyl]acrylamide]: 99%; `CCCCOCCOc1ccc(-c2ccc(N3CCC(C(=O)OC)C3)c(/C=C(\C)C(=O)Nc3ccc([S@@+]([O-])Cc4cncn4CCC)cc3)c2)cc1` (stereo partly shown) [Compound 40, (Ss)-(2E)-3-[4′-(2-butoxyethoxy)-4-[3-(methoxycarbonyl)pyrrolidin-1-yl]-1,1′-biphenyl-3-yl]-2-methyl-N-[4-[[(1-propyl-1H-imidazol-5-yl)methyl]sulfinyl]phenyl]acrylamide]: 100%; `CCCCOCCOc1ccc(-c2ccc(N3CC(C)C(C)C3)c(/C=C(\C)C(=O)Nc3ccc([S@@+]([O-])Cc4cncn4CCC)cc3)c2)cc1` (stereo partly drawn) [Compound 42, (S)-(2E)-3-[4′-(2-butoxyethoxy)-4-(3,4-dimethylpyrrolidin-1-yl)-1,1′-biphenyl-3-yl]-2-methyl-N-[4-[[(1-propyl-1H-imidazol-5-yl)methyl]sulfinyl]phenyl]acrylamide]: 100%.

With `CCCCOCCOc1ccc(-c2ccc(N3CCC(C(N)=O)C3)c(/C=C(\C)C(=O)Nc3ccc([S@@+]([O-])Cc4cncn4CCC)cc3)c2)cc1` (stereo partly shown) [Compound 43, (Ss)-(2E)-3-[4′-(2-butoxyethoxy)-4-(3-carbamoylpyrrolidin-1-yl)-1,1′-biphenyl-3-yl]-2-methyl-N-[4-[[(1-propyl-1H-imidazol-5-yl)methyl]sulfinyl]phenyl]acrylamide], the inhibition at 1 µM came to 86%. Turning to `CCCCOCCOc1ccc(-c2cnc(N3CCCC3)c(/C=C(\C)C(=O)Nc3ccc([S@@+]([O-])Cc4cncn4CCC)cc3)c2)cc1` [Compound 47, (S)-(2E)-3-[5-[4-(2-butoxyethoxy)phenyl]-2-pyrrolidin-1-ylpyridin-3-yl]-2-methyl-N-[4-[[(1-propyl-1H-imidazol-5-yl)methyl]sulfinyl]phenyl]acrylamide], the inhibition at 1 µM amounted to 96%.

`CCCCOCCOc1ccc(-c2cnc(N3CCC(C)C3)c(/C=C(\C)C(=O)Nc3ccc([S@@+]([O-])Cc4cncn4CCC)cc3)c2)cc1` (stereo partly shown) [Compound 48, (Ss)-(2E)-3-[5-[4-(2-butoxyethoxy)phenyl]-2-(3-methylpyrrolidin-1-yl)pyridin-3-yl]-2-methyl-N-[4-[[(1-propyl-1H-imidazol-5-yl)methyl]sulfinyl]phenyl]acrylamide]: the inhibition at 1 µM turned out to be 98%.

Still in this assay, the particulars now being: test compound 1 μM; [125I]-RANTES 100 pM; CCR5/CHO strains; room temperature, 40 minutes.
As for `CCCCOCCOc1ccc(-c2ccc(N3CCC(C(=O)OC)C3)c(/C=C(\C)C(=O)Nc3ccc([S@@+]([O-])Cc4cncn4CCC)cc3)c2)cc1` (single isomer, unassigned) [Compound 58, (Ss)-(2E)-3-[4′-(2-butoxyethoxy)-4-[3-(methoxycarbonyl)pyrrolidin-1-yl]-1,1′-biphenyl-3-yl]-2-methyl-N-[4-[[(1-propyl-1H-imidazol-5-yl)methyl]sulfinyl]phenyl]acrylamide], the “Binding Inhibitory Ratio (%)” value stood at 95%.

On to `CCCCOCCOc1ccc(-c2ccc(N3CCC(C(=O)O)C3)c(/C=C(\C)C(=O)Nc3ccc([S@@+]([O-])Cc4cncn4CCC)cc3)c2)cc1` (single isomer, unassigned) [Compound 60, (Ss)-(2E)-3-[4′-(2-butoxyethoxy)-4-(3-carboxypyrrolidin-1-yl)-1,1′-biphenyl-3-yl]-2-methyl-N-[4-[[(1-propyl-1H-imidazol-5-yl)methyl]sulfinyl]phenyl]acrylamide], for which the “Binding Inhibitory Ratio (%)” value worked out at 91%. `CCCCOCCOc1ccc(-c2ccc(N3CCC(O)C3)c(/C=C(\C)C(=O)Nc3ccc([S@@+]([O-])Cc4cncn4CCC)cc3)c2)cc1` (stereo partly shown) [Compound 26]: the “Binding Inhibitory Ratio (%)” value was found to be 90%. Turning to `CCCCOCCOc1ccc(-c2cc(/C=C(\C)C(=O)Nc3ccc([S@@+]([O-])Cc4cncn4CCC)cc3)c3c(c2)CCCN3C)cc1` [Compound 29, (S)-(2E)-3-[6-[4-(2-butoxyethoxy)phenyl]-1-methyl-1,2,3,4-tetrahydroquinolin-8-yl]-2-methyl-N-[4-[[(1-propyl-1H-imidazol-5-yl)methyl]sulfinyl]phenyl]-2-acrylic amide], the “Binding Inhibitory Ratio (%)” value stood at 100%.

(Values after patent US20060160864A1, “Acrylamide derivative, process for producing the same, and use” (priority 2003, published 2006).)
